This passage reports inhibition results from article PMC8041284, “Tunable Methacrylamides for Covalent Ligand Directed Release Chemistry” (Journal of the American Chemical Society, 2021).

In general, inhibition refers to the drop in the measured response relative to a control, in per cent.

The target of the first assay is BTK (Homo sapiens, UniProt Q06187). In words: biochemical. To be noted: read-out: BTK inhibition (%).
Chain of BTK (Q06187 402-655 limits assumed): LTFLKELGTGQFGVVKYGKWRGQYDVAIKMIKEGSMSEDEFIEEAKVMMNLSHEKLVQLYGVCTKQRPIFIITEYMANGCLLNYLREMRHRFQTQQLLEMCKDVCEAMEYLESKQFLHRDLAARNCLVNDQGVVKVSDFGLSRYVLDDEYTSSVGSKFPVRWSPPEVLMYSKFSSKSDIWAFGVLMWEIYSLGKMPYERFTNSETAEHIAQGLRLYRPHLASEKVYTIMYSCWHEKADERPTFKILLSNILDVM
On to `Cn1c(COP(=O)(NCCBr)NCCBr)cnc1[N+](=O)[O-]` [PCM-0214844], for which the inhibition at 10 µM is -4.7%.

The assay is the same for the next values; noted with them: read-out: BTK inhibition (%), 0.75 uM BTK, […] probe 3l, 15 min preincubation.
Consider `C[C@H]1CC[C@@]2(OC1)O[C@H]1C[C@H]3[C@@H]4CC[C@@H]5C[C@@H](O[C@@H]6O[C@H](CO)[C@H](O)[C@H](O)[C@H]6O[C@@H]6O[C@H](CO)[C@@H](O)[C@H](O)[C@H]6O)CC[C@]5(C)[C@H]4CC[C@]3(C)[C@H]1[C@@H]2C` [PCM-0216400], for which the inhibition at 10 µM amounted to 1.5%.
`Nc1nc(=O)n([C@@H]2CS[C@H](CO)O2)cc1F` [PCM-0086099]: the inhibition at 10 µM is -10.1%.
Turning to `CCC(=O)OCC(=O)[C@@]1(OC(=O)CC)[C@@H](C)C[C@H]2[C@@H]3CCC4=CC(=O)C=C[C@]4(C)[C@@]3(F)[C@@H](O)C[C@@]21C` [PCM-0095138], the inhibition at 10 µM is -9.3%.
On to `Nc1ncnc2c1c(I)cn2[C@@H]1O[C@H](CO)[C@@H](O)[C@H]1O` [PCM-0215664], for which the inhibition at 10 µM worked out at 23.9%.
In the case of `CC(C)=CCC[C@](C)(O[C@@H]1O[C@H](CO[C@@H]2OC[C@@H](O)[C@H](O)[C@H]2O)[C@@H](O)[C@H](O)[C@H]1O)[C@H]1CC[C@]2(C)[C@@H]1[C@H](O)C[C@@H]1[C@@]3(C)CC[C@H](O[C@@H]4O[C@H](CO)[C@@H](O)[C@H](O)[C@H]4O[C@@H]4O[C@H](CO)[C@@H](O)[C@H](O)[C@H]4O)C(C)(C)[C@@H]3CC[C@]12C` [PCM-0216464], the inhibition at 10 µM came to 4.6%.
Still for that read-out and setting: the result for `O=C(O)c1cc(O)c2c(c1)[C@@H]([C@H]1c3cc(C(=O)O)cc(O)c3C(=O)c3c(O[C@@H]4O[C@H](CO)[C@@H](O)[C@H](O)[C@H]4O)cccc31)c1cccc(O[C@@H]3O[C@H](CO)[C@@H](O)[C@H](O)[C@H]3O)c1C2=O` [PCM-0086913] reads 84.1%.
On the same count and under the same terms, as for `COc1ccc(-c2ccc3ncc4c(c3c2)n(-c2ccc(N3CCNCC3)c(C(F)(F)F)c2)c(=O)n4C)cn1` [PCM-0095488], the figure is 0.7%; as for `O=S(=O)(O)c1ccc2cc(N=Nc3cc(S(=O)(=O)O)c4cccnc4c3O)ccc2c1` [PCM-0215685], 54.1%; as for `CC(C)(C)S(=O)(=O)c1ccc2nccc(Nc3n[nH]c4ccc(F)cc34)c2c1` [PCM-0213348], 26.2%.
Consider `CN1CCCN(C(=O)c2cccc(-c3ccc(/C=C4/C(=O)Nc5ccc(Cl)cc54)o3)c2)CC1` [PCM-0215321], for which the inhibition at 10 µM is 26.9%.
On the same count and under the same terms, as for `O=C(Nc1ccc(-c2ccnc(Nc3ccc(N4CCOCC4)cc3)n2)cc1)[C@@H]1CCCN1` [PCM-0215262], the figure is 4.8%; as for `CN[C@@H](C)C(=O)N[C@H]1CN(C(=O)CC(C)C)CC[C@H]2CC[C@@H](C(=O)NC(c3ccccc3)c3ccccc3)N2C1=O` [PCM-0214841], -9.3%.
As to `CCC1=C[C@@H]2CN3CCc4c([nH]c5ccccc45)[C@@](C(=O)OC)(C2)[C@@H]13` [PCM-0085818], the inhibition at 10 µM worked out at 8.6%.
For the molecule `O=C(O)CCc1ccc(O)cc1` [PCM-0215016], the inhibition at 10 µM was -17.9%.
In the case of `COc1ccc(COc2ccc(Cc3cnc(N)nc3N)cc2OC)cc1` [PCM-0095630], the inhibition at 10 µM was -7.6%.
Regarding `CCCCCOc1ccccc1/C(=C\SC)n1ccnc1` [PCM-0215110], the inhibition at 10 µM was -22.6%.
Same read-out and setting: as for `Cc1cnc(Nc2ccc(F)cc2Cl)nc1-c1c[nH]c(C(=O)N[C@H](CO)c2cccc(Cl)c2)c1` [PCM-0213398], the figure is 60%; as for `NC[C@@](O)(c1ccc(Cl)cc1)c1ccc(-c2cn[nH]c2)cc1` [PCM-0215408], -10.3%.
The same measure, in the same setting: as for `NC(=O)c1cc(F)cc2c1C(=O)N(C1CCN(C3CCC(F)(F)CC3)CC1)C2` [PCM-0215809], the figure is 4.6%.
Turning to `COC(=O)c1c2c(c3ccccc3c1O)OC(C)(C)C=C2` [PCM-0216437], the inhibition at 10 µM was -27%.
On the same count and under the same terms, as for `CNC[C@H](O)c1ccc(O)c(O)c1` [PCM-0065121], the figure is -9.3%.
On to `Fc1ccc2[nH]ccc2c1-c1nc(N2CCOCC2)c2sc(CN3CCN(CC4CC4)CC3)cc2n1` [PCM-0215422], for which the inhibition at 10 µM was -18.6%.
Turning to `OC(c1ccccc1)(c1ccccc1)C12CC[N+](CCOCc3ccccc3)(CC1)CC2` [PCM-0214921], the inhibition at 10 µM is -34.2%.
